Results from the supplement of paper PMC11451515.

Tested on: SEM cells
Test: cell viability relative to DMSO control; higher = less cytotoxic
Conditions: 48 h
In short: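 Library compounds in DMSO were pin-dosed into 1536-well plates (5 μl) holding NOMO1 or SEM (500 cells/well) or P12-Ichikawa (1000 cells/well) leukemia cells, across an 11-point threefold series of 47 μM to 0.79 nM. Each cell line had been adapted for at least four passages in each medium. CellTiter-Glo One luminescence was read after 48 h at 37°C. Viability is the per-plate percentage relative to DMSO wells, with cell-free wells as background.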

[1] = HPLM + 10% dialyzed FBS, 0.000781 µM
[2] = HPLM + 10% dialyzed FBS, 0.00234 µM
[3] = HPLM + 10% dialyzed FBS, 0.00702 µM
[4] = HPLM + 10% dialyzed FBS, 0.0211 µM
[5] = HPLM + 10% dialyzed FBS, 0.0632 µM
[6] = HPLM + 10% dialyzed FBS, 0.19 µM
[7] = HPLM + 10% dialyzed FBS, 0.569 µM
[8] = HPLM + 10% dialyzed FBS, 1.71 µM
[9] = HPLM + 10% dialyzed FBS, 5.12 µM
[10] = HPLM + 10% dialyzed FBS, 15.4 µM
[11] = HPLM + 10% dialyzed FBS, 46.1 µM
[12] = RPMI 5 mM glucose + 10% FBS, 0.000781 µM
[13] = RPMI 5 mM glucose + 10% FBS, 0.00234 µM
[14] = RPMI 5 mM glucose + 10% FBS, 0.00702 µM
[15] = RPMI 5 mM glucose + 10% FBS, 0.0211 µM
[16] = RPMI 5 mM glucose + 10% FBS, 0.0632 µM
[17] = RPMI 5 mM glucose + 10% FBS, 0.19 µM
[18] = RPMI 5 mM glucose + 10% FBS, 0.569 µM
[19] = RPMI 5 mM glucose + 10% FBS, 1.71 µM
[20] = RPMI 5 mM glucose + 10% FBS, 5.12 µM
[21] = RPMI 5 mM glucose + 10% FBS, 15.4 µM
[22] = RPMI 5 mM glucose + 10% FBS, 46.1 µM
[23] = RPMI 5 mM glucose + 10% dialyzed FBS, 0.000781 µM
[24] = RPMI 5 mM glucose + 10% dialyzed FBS, 0.00234 µM
[25] = RPMI 5 mM glucose + 10% dialyzed FBS, 0.00702 µM
[26] = RPMI 5 mM glucose + 10% dialyzed FBS, 0.0211 µM
[27] = RPMI 5 mM glucose + 10% dialyzed FBS, 0.0632 µM
[28] = RPMI 5 mM glucose + 10% dialyzed FBS, 0.19 µM
[29] = RPMI 5 mM glucose + 10% dialyzed FBS, 0.569 µM
[30] = RPMI 5 mM glucose + 10% dialyzed FBS, 1.71 µM
[31] = RPMI 5 mM glucose + 10% dialyzed FBS, 5.12 µM
[32] = RPMI 5 mM glucose + 10% dialyzed FBS, 15.4 µM
[33] = RPMI 5 mM glucose + 10% dialyzed FBS, 46.1 µM

| Structure (SMILES) | cell viability [1] [%] | cell viability [2] [%] | cell viability [3] [%] | cell viability [4] [%] | cell viability [5] [%] | cell viability [6] [%] | cell viability [7] [%] | cell viability [8] [%] | cell viability [9] [%] | cell viability [10] [%] | cell viability [11] [%] | cell viability [12] [%] | cell viability [13] [%] | cell viability [14] [%] | cell viability [15] [%] | cell viability [16] [%] | cell viability [17] [%] | cell viability [18] [%] | cell viability [19] [%] | cell viability [20] [%] | cell viability [21] [%] | cell viability [22] [%] | cell viability [23] [%] | cell viability [24] [%] | cell viability [25] [%] | cell viability [26] [%] | cell viability [27] [%] | cell viability [28] [%] | cell viability [29] [%] | cell viability [30] [%] | cell viability [31] [%] | cell viability [32] [%] | cell viability [33] [%] |
| --- | --- | --- | --- | --- | --- | --- | --- | --- | --- | --- | --- | --- | --- | --- | --- | --- | --- | --- | --- | --- | --- | --- | --- | --- | --- | --- | --- | --- | --- | --- | --- | --- | --- |
| O=C(O)c1ccc(-c2c[nH]c3ncc(-c4ccccc4)cc23)cc1C1CCCC1 | 98 | 103 | 113 | 113 | 118 | 125 | 99 | 108 | 82.4 | 63.5 | 66.6 | 111 | 110 | 111 | 109 | 121 | 113 | 101 | 91.8 | 69.8 | 47.1 | 43.2 | 114 | 116 | 119 | 138 | 114 | 115 | 123 | 101 | 65.3 | 44.1 | 35.3 |
| O=C([O-])[C@H](CC(=O)N1C[C@H]2CCCC[C@H]2C1)Cc1ccccc1 | 79.8 | 91.7 | 88.2 | 72.7 | 107 | 109 | 103 | 106 | 119 | 125 | 121 | 93.8 | 110 | 105 | 87.7 | 102 | 108 | 106 | 112 | 117 | 128 | 119 | 85.1 | 103 | 107 | 65.5 | 95.7 | 117 | 115 | 105 | 129 | 137 | 140 |
| O=[S+]([O-])(CCSSCC[S+](=O)([O-])[O][Na])[O][Na] | 78.9 | 95.5 | 101 | 65.2 | 120 | 104 | 102 | 103 | 107 | 108 | 118 | 117 | 97.5 | 116 | 73.7 | 115 | 112 | 119 | 103 | 124 | 112 | 111 | 103 | 99.9 | 113 | 72.8 | 134 | 120 | 126 | 120 | 121 | 126 | 139 |
| C[C@H]1[C@H](O)O[C@@H]2O[C@@]3(C)CC[C@H]4[C@H](C)CC[C@@H]1[C@@]24OO3 | 86.7 | 82.3 | 90.2 | 92.7 | 95.8 | 109 | 105 | 98.3 | 41.5 | 22.4 | 17.9 | 82.3 | 93 | 90.8 | 89.3 | 96.9 | 94.8 | 93.1 | 74.5 | 47.1 | 10.1 | 5.91 | 74.7 | 82.1 | 89 | 82.8 | 76 | 111 | 89.8 | 87.1 | 17.6 | 8.87 | 8.68 |
| CC[C@H](NC(C)C)[C@H](O)c1ccc(O)c2[nH]c(=O)ccc12 | 75.6 | 90.5 | 101 | 92.8 | 89.3 | 100 | 94.6 | 98.1 | 98.5 | 98.8 | 68.4 | 89.2 | 112 | 96.9 | 107 | 109 | 98.1 | 108 | 100 | 104 | 106 | 79.3 | 100 | 87.5 | 98 | 109 | 119 | 109 | 125 | 105 | 113 | 98.9 | 85.5 |
| CCCCCCCCOc1ccccc1C(=O)Nc1ccc(C(=O)OCC[N+](C)(CC)CC)cc1 | 105 | 115 | 101 | 105 | 102 | 112 | 108 | 96.6 | 73.9 | 91.2 | 57.2 | 98.2 | 93 | 84.5 | 102 | 96.9 | 102 | 97 | 85.6 | 49.5 | 93.5 | 33.4 | 97 | 109 | 90.4 | 99.9 | 107 | 121 | 104 | 95.3 | 75.5 | 118 | 30.7 |
| NC/1=N/C(=O)N(C[C@@H](CO)OC[P](O)(O)=O)/C=C1 | 115 | 130 | 120 | 126 | 139 | 126 | 120 | 125 | 106 | 105 | 94.6 | 106 | 103 | 117 | 99.2 | 111 | 113 | 98.2 | 95.2 | 100 | 97.7 | 69.7 | 136 | 111 | 115 | 122 | 131 | 106 | 128 | 123 | 101 | 111 | 100 |
